Where a name gives a salt, the structure may show the parent alone. Read-outs that look alike come from different tables or passages of the source.

One assay has as its target ROCK1 (Homo sapiens (Human), UniProt Q13464). The assay can be described thus: FRET-based Z'-Lyte kinase assay, ROCK1.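 Also: kinase phosphorylates a coumarin/fluorescein-labelled FRET peptide, then a protease cleaves unphosphorylated peptide, progress read as donor to acceptor emission ratio after 400 nm excitation.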 The assay is classed as biochemical.
The target in a further assay is Aurora-A (Homo sapiens (Human), UniProt O14965). Briefly: preliminary kinase-selectivity profile, Aurora-A. The assay is classed as biochemical.
Chain of Aurora-A (O14965 whole entry): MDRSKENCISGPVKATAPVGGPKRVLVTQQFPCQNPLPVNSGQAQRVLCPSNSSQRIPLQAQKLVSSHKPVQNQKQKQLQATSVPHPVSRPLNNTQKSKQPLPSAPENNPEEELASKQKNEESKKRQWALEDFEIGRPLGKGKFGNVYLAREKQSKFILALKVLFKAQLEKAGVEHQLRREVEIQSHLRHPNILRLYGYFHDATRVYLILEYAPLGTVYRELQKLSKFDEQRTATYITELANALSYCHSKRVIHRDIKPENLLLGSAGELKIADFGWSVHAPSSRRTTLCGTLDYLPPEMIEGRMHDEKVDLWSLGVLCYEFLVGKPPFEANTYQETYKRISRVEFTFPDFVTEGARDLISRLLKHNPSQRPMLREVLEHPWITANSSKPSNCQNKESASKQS
Assay [1] addresses T1, ROCK2 (Homo sapiens (Human), UniProt O75116). Particulars: reported by MLSCN, assay ID 644; read-out: ROCK2 enzymatic activity IC50; cited from earlier work.
Assay [2] deals with T1, ROCK2. Briefly: FRET-based Z'-Lyte kinase assay, ROCK2.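 Also: kinase phosphorylates a coumarin/fluorescein FRET peptide, then a protease cleaves unphosphorylated peptide, read as donor/acceptor emission ratio after 400 nm excitation.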 Format: biochemical.
From the text: (§1) A) In the primary reaction, the Rho kinases phosphorylates a single serine or threonine residue in a synthetic FRET-peptide. This FRET-peptide is doubly labeled with a fluorophore at each end—coumarin (the FRET donor) on one end and fluorescein (the FRET acceptor) on the other—and also contains a single phosphorylation site which either overlaps with or lies adjacent to the proteolytic site. B) In the secondary reaction, a site-specific protease recognizes and cleaves the non-phosphorylated FRET-peptide. Cleavage disrupts FRET between the donor and acceptor fluorophores on the FRET-peptide, whereas uncleaved, phosphorylated FRET-peptides maintain FRET. Kinases phosphorylated FRET-peptides cannot be cleaved by the protease. […] Cleavage disrupts FRET and causes a decrease in the fluorescein fluorescence signal and a strong increase in the coumarin fluorescence signal. Therefore the extension of the phosphprylation can be measured by FRET-signal remaining the protease reaction. The assay uses a ratiometric method, which calculates the ratio of donor emission to acceptor emission (the emission ratio) after excitation of the donor fluorophore at 400 nm, to quantitate reaction progress.
(§2) All compounds were systematically screened against ROCK1 and ROCK2.
Assay [3] deals with phosphorylation of MYPT1, a substrate for ROCK kinase, in H1299 cells. Briefly: phosphorylation levels of MYPT1 in intact H1299 cells (western blot). Format: cell-based, human. Particulars: for IC50: H1299 human lung cancer cells, read-out: IC50 for inhibition of phosphorylation of MYPT1.
A further assay relates to breast tumors. The assay can be described thus: transgenic mouse breast cancer model (rat Her2 under MMTV promoter). Format: in vivo. Particulars: 200 mpk/day, once a day for 14 days; last day of treatment relative to day of initiation. How it is done:
The anti tumor activity of 1bo was determined in vivo in a transgenic mouse breast cancer model. In this model, the mice harbor the rat Her2 gene under the control of the MMTV promoter. These mice therefore spontaneously develop tumors in their mammary tissues. Breast tumors were measured beginning at the time of tumor onset and treatment (once a day for 14 days) with vehicle (20% HPCD) or 1bo (200 mpk/day) began when tumor volumes reached about 200 to 2,300 mm^3. A wide range of tumor volumes was used to ensure that responses were not volume dependent. […] The percent change was calculated from the tumor volume on the last day of treatment relative to the volume on the day of initiation of treatment. […] Thus, on average the breast tumors from 1bo treated mice were 6.6 fold smaller compared to those tumors from mice treated with the vehicle control.

T1 sequence (O75116 whole entry, species assumed): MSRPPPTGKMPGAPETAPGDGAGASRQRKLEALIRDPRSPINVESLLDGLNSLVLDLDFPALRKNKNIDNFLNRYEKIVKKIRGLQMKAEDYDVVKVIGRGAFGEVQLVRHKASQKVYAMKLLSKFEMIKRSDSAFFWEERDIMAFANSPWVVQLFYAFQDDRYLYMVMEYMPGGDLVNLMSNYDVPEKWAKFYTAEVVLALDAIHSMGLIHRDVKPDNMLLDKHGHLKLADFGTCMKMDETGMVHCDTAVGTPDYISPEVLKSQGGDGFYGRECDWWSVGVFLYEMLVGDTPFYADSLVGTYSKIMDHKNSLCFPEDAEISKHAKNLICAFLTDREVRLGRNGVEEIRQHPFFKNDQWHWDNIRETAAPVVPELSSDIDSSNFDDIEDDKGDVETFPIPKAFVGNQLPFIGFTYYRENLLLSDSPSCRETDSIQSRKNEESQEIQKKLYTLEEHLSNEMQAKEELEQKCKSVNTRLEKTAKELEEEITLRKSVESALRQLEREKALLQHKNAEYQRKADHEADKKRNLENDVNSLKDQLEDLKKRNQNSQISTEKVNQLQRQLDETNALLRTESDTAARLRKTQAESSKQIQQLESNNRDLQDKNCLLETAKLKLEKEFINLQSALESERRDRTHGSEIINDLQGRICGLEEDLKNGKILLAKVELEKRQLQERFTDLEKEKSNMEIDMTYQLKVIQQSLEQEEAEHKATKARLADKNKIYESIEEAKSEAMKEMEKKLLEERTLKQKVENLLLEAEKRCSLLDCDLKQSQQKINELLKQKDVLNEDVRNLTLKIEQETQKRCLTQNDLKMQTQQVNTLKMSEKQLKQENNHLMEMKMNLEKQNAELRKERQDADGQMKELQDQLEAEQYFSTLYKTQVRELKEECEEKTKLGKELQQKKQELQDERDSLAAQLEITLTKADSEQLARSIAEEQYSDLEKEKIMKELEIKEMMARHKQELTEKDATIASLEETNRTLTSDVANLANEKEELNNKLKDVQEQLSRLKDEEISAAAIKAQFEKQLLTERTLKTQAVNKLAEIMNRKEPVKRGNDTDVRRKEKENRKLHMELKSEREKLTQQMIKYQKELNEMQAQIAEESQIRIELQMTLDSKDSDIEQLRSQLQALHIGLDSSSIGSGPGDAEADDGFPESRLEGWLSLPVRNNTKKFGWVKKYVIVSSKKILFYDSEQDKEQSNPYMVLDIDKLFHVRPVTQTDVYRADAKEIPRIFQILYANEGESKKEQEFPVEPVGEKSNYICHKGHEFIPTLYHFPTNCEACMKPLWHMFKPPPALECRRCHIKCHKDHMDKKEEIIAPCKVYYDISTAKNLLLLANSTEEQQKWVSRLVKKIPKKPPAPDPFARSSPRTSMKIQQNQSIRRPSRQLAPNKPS
Chain of ROCK1 (Q13464 whole entry, species assumed): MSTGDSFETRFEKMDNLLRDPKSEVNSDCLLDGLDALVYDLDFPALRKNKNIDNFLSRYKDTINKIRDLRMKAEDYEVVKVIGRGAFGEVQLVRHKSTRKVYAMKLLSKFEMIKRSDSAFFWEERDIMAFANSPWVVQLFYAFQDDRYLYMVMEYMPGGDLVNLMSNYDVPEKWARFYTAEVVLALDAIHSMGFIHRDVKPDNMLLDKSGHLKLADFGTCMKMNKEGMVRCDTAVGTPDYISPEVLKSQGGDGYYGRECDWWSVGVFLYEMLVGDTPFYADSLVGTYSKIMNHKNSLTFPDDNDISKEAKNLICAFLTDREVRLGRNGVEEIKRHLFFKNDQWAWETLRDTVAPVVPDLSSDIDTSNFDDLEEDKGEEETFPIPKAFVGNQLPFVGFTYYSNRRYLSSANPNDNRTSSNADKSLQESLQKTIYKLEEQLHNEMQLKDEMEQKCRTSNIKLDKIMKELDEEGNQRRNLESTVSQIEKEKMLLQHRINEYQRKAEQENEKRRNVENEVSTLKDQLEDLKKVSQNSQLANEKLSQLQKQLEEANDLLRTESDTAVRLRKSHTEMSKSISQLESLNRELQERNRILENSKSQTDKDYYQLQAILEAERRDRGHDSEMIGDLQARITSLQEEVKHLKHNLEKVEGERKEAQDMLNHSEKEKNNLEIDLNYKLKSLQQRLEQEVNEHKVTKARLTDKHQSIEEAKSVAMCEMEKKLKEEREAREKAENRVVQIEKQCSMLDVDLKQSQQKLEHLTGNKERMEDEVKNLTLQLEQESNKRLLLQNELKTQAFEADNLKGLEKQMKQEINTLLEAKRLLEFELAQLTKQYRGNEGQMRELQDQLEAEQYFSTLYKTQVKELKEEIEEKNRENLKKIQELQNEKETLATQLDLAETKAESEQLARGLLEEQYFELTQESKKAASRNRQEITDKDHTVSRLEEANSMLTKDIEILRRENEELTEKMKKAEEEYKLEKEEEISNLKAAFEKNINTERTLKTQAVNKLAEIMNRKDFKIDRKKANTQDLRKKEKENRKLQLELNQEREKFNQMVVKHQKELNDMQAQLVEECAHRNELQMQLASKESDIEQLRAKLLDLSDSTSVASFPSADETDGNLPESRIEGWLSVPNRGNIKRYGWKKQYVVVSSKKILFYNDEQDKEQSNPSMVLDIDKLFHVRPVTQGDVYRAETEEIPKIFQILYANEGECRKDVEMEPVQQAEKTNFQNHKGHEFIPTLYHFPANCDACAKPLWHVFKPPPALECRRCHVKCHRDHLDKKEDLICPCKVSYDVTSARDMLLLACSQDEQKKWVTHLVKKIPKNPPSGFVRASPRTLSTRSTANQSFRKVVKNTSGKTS
From the text for ROCK1: as §1, §2

Regarding `O=C(Nc1nc(-c2ccncc2)cs1)C1COc2ccccc2O1` (centres unmarked) [CID5056270, reference compound], the IC50 was 0.076 µM at ROCK1 (read-out: ROCK1 IC50), greater than 100000 nM at Aurora-A, less than 3 nM at ROCK2 [1] and 0.04 µM at ROCK2 [2] (read-out: ROCK2 IC50).

For the compound `COc1ccc(CNC(=O)Nc2nc(-c3ccncc3)cs2)cc1` [Compound 1am, 1-(4-Methoxybenzyl)-3-(4-(pyridin-4-yl)thiazol-2-yl)urea], the inhibition at 50 µM at ROCK1 (read-out: ROCK1 % inhibition @ 50 μM, 50 μM compound) was 9.12%. Besides, the “effect on phosphorylation of MYPT1” value in assay [3] (H1299 cells, 10 μM) is on record as “did not affect”.

Turning to `O=C(NCc1cccc(O)c1)Nc1nc(-c2ccncc2)cs1` [Compound 1bo, 1-(3-Hydroxybenzyl)-3-(4-(pyridin-4-yl)thiazol-2-yl)urea], the IC50 on ROCK1 (read-out: ROCK1 IC50) was found to be 0.008 µM; in assay [3], 500 nM. Moreover, the “average percent change in tumor volume” value with breast tumors was found to be 8.9%.

As for `O=C(NCc1cccc(O)c1)Nc1nc(-c2ccncc2)cs1` [Compound 1bo-Mes, 1-(3-hydroxybenzyl)-3-(4-(pyridin-4-yl)thiazol-2-yl)urea methanesulfonate], the IC50 at ROCK1 (methanesulfonate, read-out: IC50 ± SD (μM) ROCK1) amounted to 0.013 µM; at ROCK1 (read-out: ROCK1 IC50), 0.012 µM; in assay [3] (NCI-H1299), 500 nM.

In the case of `CC(NC(=O)Nc1nc(-c2ccncc2)cs1)c1cccc(F)c1` (centres unmarked) [Compound 1ca, 1-(1-(3-fluorophenyl)ethyl)-3-(4-(pyridin-4-yl)thiazol-2-yl)urea], the concentration for half-maximal inhibition (IC50) was determined as 0.43 ± 0.13 µM on ROCK1 (read-out: IC50 ± SD (μM) ROCK1) and 0.28 ± 0.13 µM on ROCK2 [2] (read-out: IC50 ± SD (μM) ROCK2).

For the compound `C[C@@H](NC(=O)Nc1nc(-c2ccncc2)cs1)c1cccc(Cl)c1` [Compound 1cb, (R)-1-(1-(3-chlorophenyl)ethyl)-3-(4-(pyridin-4-yl)thiazol-2-yl)urea], the 50% inhibitory concentration (IC50) at ROCK1 (read-out: IC50 ± SD (μM) ROCK1) was determined as 0.55 ± 0.32 µM; on ROCK2 [2] (read-out: IC50 ± SD (μM) ROCK2), 0.07 ± 0.02 µM.

As for `C[C@@H](NC(=O)Nc1nc(-c2ccncc2)cs1)c1cccc(F)c1` [Compound 1cc, (R)-1-(1-(3-fluorophenyl)ethyl)-3-(4-(pyridin-4-yl)thiazol-2-yl)urea], the “fold less potent than 1ah” value on ROCK1 (comparator 1ah) came out at 3 fold. The concentration for half-maximal inhibition (IC50) turned out to be 0.11 ± 0.01 µM at ROCK1 (read-out: IC50 ± SD (μM) ROCK1) and 0.03 ± 0.01 µM on ROCK2 [2] (read-out: IC50 ± SD (μM) ROCK2).

Turning to `O=C(NCc1cc(F)cc(F)c1)Nc1nc(-c2ccncc2)cs1` [Compound 1cd, 1-(3,5-difluorobenzyl)-3-(4-(pyridin-4-yl)thiazol-2-yl)urea], the 50% inhibitory concentration (IC50) at ROCK1 (read-out: IC50 ± SD (μM) ROCK1) was determined as 4.07 ± 2.76 µM; at ROCK2 [2] (read-out: IC50 ± SD (μM) ROCK2), 0.96 ± 0.56 µM.

For the compound `C[C@H](NC(=O)Nc1nc(-c2ccncc2)cs1)c1cccc(F)c1` [Compound 1cf, (S)-1-(1-(3-fluorophenyl)ethyl)-3-(4-(pyridin-4-yl)thiazol-2-yl)urea], the IC50 on ROCK1 (read-out: IC50 ± SD (μM) ROCK1) was 30 ± 10 µM; at ROCK2 [2] (read-out: IC50 ± SD (μM) ROCK2), 11 ± 6.74 µM.

`CS(=O)(=O)Nc1cccc(CNC(=O)Nc2nc(-c3ccncc3)cs2)c1` [Compound 1ch, N-(3-β3-(4-(pyridin-4-yl)thiazol-2-yl)ureido)methyl)phenyl)-methanesulfonamide hydrochloride]: the IC50 at ROCK1 (read-out: IC50 ± SD (μM) ROCK1) amounted to 0.56 ± 0.1 µM; at ROCK2 [2] (read-out: IC50 ± SD (μM) ROCK2) it was 0.1 ± 0.03 µM.

For `CC(=O)Nc1cccc(CNC(=O)Nc2nc(-c3ccncc3)cs2)c1` [Compound 1ci, N-(3-((3-(4-(pyridin-4-yl)thiazol-2yl)ureido)methyl)phenyl)acetamide hydrochloride], the IC50 worked out at 1.25 ± 0.21 µM on ROCK1 (read-out: IC50 ± SD (μM) ROCK1) and 0.13 ± 0.02 µM on ROCK2 [2] (read-out: IC50 ± SD (μM) ROCK2).

Turning to `NC(=O)Nc1cccc(CNC(=O)Nc2nc(-c3ccncc3)cs2)c1` [Compound 1cj, hydrochloride], the IC50 at ROCK1 (read-out: IC50 ± SD (μM) ROCK1) was determined as 1.15 ± 0.39 µM; at ROCK2 [2] (read-out: IC50 ± SD (μM) ROCK2) it was 0.18 ± 0.04 µM.

Take `COc1ccc(CNC(=O)Nc2nc(-c3ccncc3)cs2)cc1OC` [Compound 1ck, 1-(3,4-Dimethoxybenzyl)-3-(4-(pyridin-4-yl)thiazol-2-yl)urea]: the IC50 was found to be 45.1 ± 5.57 µM at ROCK1 (read-out: IC50 ± SD (μM) ROCK1) and 25 ± 1.01 µM on ROCK2 [2] (read-out: IC50 ± SD (μM) ROCK2).

`CC(C)(NC(=O)Nc1nc(-c2ccncc2)cs1)c1ccccc1` [Compound 1cl, 1-(2-Phenylpropan-2-yl)-3-(4-(pyridin-4-yl)thiazol-2-yl)urea]: the IC50 is 0.19 ± 0.04 µM at ROCK1 (read-out: IC50 ± SD (μM) ROCK1) and 0.07 ± 0.02 µM on ROCK2 [2] (read-out: IC50 ± SD (μM) ROCK2).

On to `COc1cccc(CN(C)C(=O)Nc2nc(-c3ccncc3)cs2)c1` [Compound 1cm, 1-(3-Methoxybenzyl)-1-methyl-3-(4-(pyridin-4-yl)thiazol-2-yl)urea], for which the IC50 at ROCK1 (read-out: IC50 ± SD (μM) ROCK1) was 0.04 ± 0.01 µM; on ROCK2 [2] (read-out: IC50 ± SD (μM) ROCK2), 0.015 ± 0.004 µM.

For `C[C@H](c1ccccc1)N(C)C(=O)Nc1nc(-c2ccncc2)cs1` [Compound 1cn, (R)-1-Methyl-1-(1-phenylethyl)-3-(4-(pyridin-4-yl)thiazol-2-yl)urea], the IC50 at ROCK1 (read-out: IC50 ± SD (μM) ROCK1) came out at 0.12 ± 0.04 µM; on ROCK2 [2] (read-out: IC50 ± SD (μM) ROCK2), 0.047 ± 0.018 µM.

For the compound `C[C@@H](c1ccccc1)N(C)C(=O)Nc1nc(-c2ccncc2)cs1` [Compound 1co, (S)-1-Methyl-1-(1-phenylethyl)-3-(4-(pyridin-4-yl)thiazol-2-yl)urea], the IC50 at ROCK1 (read-out: IC50 ± SD (μM) ROCK1) turned out to be 6.44 ± 1.67 µM; at ROCK2 [2] (read-out: IC50 ± SD (μM) ROCK2) it was 2.67 ± 0.89 µM.

As for `NC(=O)[C@@H](NC(=O)Nc1nc(-c2ccncc2)cs1)c1ccccc1` [Compound 1cp, (S)-2-Phenyl-2-(3-(4-(pyridin-4-yl)thiazol-2-yl)ureido)acetamide], the “fold loss of potency compared to 1at” value at ROCK1 (comparator 1at) is 11 fold. Besides, the IC50 at ROCK1 (read-out: IC50 ± SD (μM) ROCK1) came to 0.08 ± 0.01 µM; on ROCK2 [2] (read-out: IC50 ± SD (μM) ROCK2), 0.04 ± 0.016 µM.

For the compound `O=C(Nc1nc(-c2ccncc2)cs1)N1CCc2ccccc2C1` [Compound 1cq, N-(4-(Pyridin-4-yl)thiazol-2-yl)-3,4-dihydroisoquinoline-2(1H)-carboxamide], the 50% inhibitory concentration (IC50) was found to be 3.87 ± 0.351 µM on ROCK1 (read-out: IC50 ± SD (μM) ROCK1) and 1.95 ± 0.389 µM at ROCK2 [2] (read-out: IC50 ± SD (μM) ROCK2).

Consider `O=C(Nc1nc(-c2ccncc2)cs1)N[C@@H]1CCc2ccccc21` [Compound 1ct, (R)-1-(2,3-Dihydro-1H-inden-1-yl)-3-(4-(pyridin-4-yl)thiazol-2-yl)urea], for which the IC50 on ROCK1 (read-out: IC50 ± SD (μM) ROCK1) turned out to be 28.2 ± 1.84 µM; on ROCK2 [2] (read-out: IC50 ± SD (μM) ROCK2), 52.5 ± 1.75 µM.

Regarding `O=C(Nc1nc(-c2ccncc2)cs1)N[C@H]1CCc2ccccc21` [Compound 1cu, (S)-1-(2,3-Dihydro-1H-inden-1-yl)-3-(4-(pyridin-4-yl)thiazol-2-yl)urea], the half-maximal inhibitory concentration (IC50) was determined as 3.21 ± 0.9 µM on ROCK1 (read-out: IC50 ± SD (μM) ROCK1) and 1.83 ± 0.56 µM at ROCK2 [2] (read-out: IC50 ± SD (μM) ROCK2).

Turning to `O=C(Nc1nc(-c2ccncc2)cs1)N[C@@H]1CCCc2ccccc21` [Compound 1cv, (R)-1-(4-(Pyridin-4-yl)thiazol-2-yl)-3-(1,2,3,4-tetrahydronaphthalen-1-yl)urea], the IC50 at ROCK1 (read-out: IC50 ± SD (μM) ROCK1) came to 6.99 ± 1.61 µM; on ROCK2 [2] (read-out: IC50 ± SD (μM) ROCK2) it was 3.82 ± 1.53 µM.

With `O=C(Nc1nc(-c2ccncc2)cs1)N[C@H]1CCCc2ccccc21` [Compound 1cw], the half-maximal inhibitory concentration (IC50) at ROCK1 (read-out: IC50 ± SD (μM) ROCK1) amounted to 6.25 ± 1.36 µM; on ROCK2 [2] (read-out: IC50 ± SD (μM) ROCK2), 3.35 ± 0.87 µM.

In the case of `O=C(Nc1nc(-c2ccncc2)cs1)Nc1ccccc1Cl` [Compound 6e, 1-(2-Chlorophenyl)-3-(4-(pyridin-4-yl)thiazol-2-yl)urea], the figures for the IC50 at ROCK1 (read-out: IC50 ± SD (μM) ROCK1) and on ROCK2 [2] (read-out: IC50 ± SD (μM) ROCK2) were 2.49 ± 1.07 µM and 3.75 ± 0.39 µM, respectively.

Take `O=C(Nc1nc(-c2ccncc2)cs1)N1CCN(c2ccncc2)CC1` [Compound 12a, 4-(Pyridin-4-yl)-N-(4-(pyridin-4-yl)thiazol-2-yl)piperazine-1-carboxamide]: the figures for the IC50 on ROCK1 (read-out: IC50 ± SD (μM) ROCK1) and at ROCK2 [2] (read-out: IC50 ± SD (μM) ROCK2) were 16.9 ± 2.11 µM and 8.35 ± 2.36 µM, respectively.

These data come from patent publication US9221808B2, “Pyridylthiazole-based ureas as inhibitors of Rho associated protein kinase (ROCK) and methods of use” (H. Lee Moffitt Cancer Center and Research Institute, Inc., priority 2010, dated 2015).
